Measurements from US20240358693A1, “METHODS OF TREATING PAIN” (Aisa Pharma, Inc., priority 2023, published 2024).

Test system: participants with SSc-RP
Test: Scleroderma Health Assessment Questionnaire (SHAQ): disability indices and visual analog scales
Assay type: in vivo, human
Settings: for SHAQ Standard Disability Index: Baseline, Mean / SHAQ Standard Disability Index: Baseline, Median / SHAQ Standard Disability Index: Change from Baseline (Day 12), Mean / SHAQ Standard Disability Index: Change from Baseline (Day 12), Median / SHAQ Standard Disability Index: In-Clinic Visit (Day 12), Mean / SHAQ Standard Disability Index: In-Clinic Visit (Day 12), Median / SHAQ Standard Disability Index: Percent Change from Baseline (Day 12), Mean / SHAQ Standard Disability Index: Percent Change from Baseline (Day 12), Median: PP Population, Part A, sensitivity analysis
Text: The standard, validated, patient reported outcome measures tool for SSc patients, the Scleroderma Health Assessment Questionnaire (SHAQ), will be used to assess the participant qualify of life. Details are attached in the Appendix. The participant quality of life will be scored, and a disability index calculated for each questionnaire completed by the patient at Screening and each in-clinic visit. The absolute change in participant quality of life from baseline to the end of each dosing period will be calculated similar to frequency data as before.
The SHAQ includes a Raynaud's VAS, which will be reported at screening and each in-clinic visit. The absolute change in Raynaud-VAS, assessed by the participants response to the SHAQ question ‘In the past 7 days, how much have your Raynaud's interfered with your daily activities?’ at baseline and the end of each dosing period will be calculated similar to frequency data as before.
The SHAQ is used to calculate a Disability Index to assess the participant qualify of life. The eight categories assessed by the Disability Index are 1) dressing and grooming, 2) arising, 3) eating, 4) walking, 5) hygiene, 6) reach, 7) grip, and 8) common daily activities. For each of these categories, patients report the amount of difficulty they have in performing two or three specific activities.
There are four possible responses for the Disability Index questions: • Without any difficulty=0 • With some difficulty=1 • With much difficulty=2 • Unable to do=3. • The highest score reported by the patient for any component question of the eight categories determines the score for that category. • If a component question is left blank or the response is too ambiguous to assign a score, then the score for that category is determined by the remaining completed question(s). • If all component questions are blank or if more than one answer is given, then follow up with the respondent is required. • If the respondent's mark is between the response columns, then move it to the closest one. If it's directly between the two, move it to the higher one.
Each of the disability items on the SHAQ has a companion aids/devices variable that is used to record what type(s) of assistance, if any, the participant uses for his/her usual activities. These variables (see below) are coded as follows: • 0=No assistance is needed. • 1=A special device is used by the patient in his/her usual activities. • 2=The patient usually needs help from another person. • 3=The patient usually needs BOTH a special device AND help from another person.
The scoring variables and scoring rules permit the computation of two disability indices, the Standard Disability Index and the Alternative Disability Index.
This question results in a new set of category scores that are computed by adjusting the score for each category, if necessary, based on the patient's use of an aid or device or assistance for that category. If either devices and/or help from another person are checked for a category, the score is set to “2”, unless the score is already “3” (i.e., scores of “0” or “1” are increased to “2”). For example, if the highest score for the dressing category is “1”, and the patient says they use a device for dressing, the computed category score would be “2”. The sum of the computed categories scores is then calculated and divided by the number of categories answered. This gives a score in the 0 to 3 range.
The aid and device variables are not used to calculate the alternative disability index; it is calculated by adding the scores for each of the categories and dividing by the number of categories answered. This gives a score in the 0 to 3 range.
The standard, validated, patient reported outcome measures tool for SSc patients, the SHAQ, was collected at the time points specified in the study schedules (FIG. 2 and FIGS. 4A and 4B) to assess the participant's quality of life. The SHAQ included a Raynaud's VAS that will also be reported separately.

[1] = Table C9, Pooled Cilnidipine 10 mg and Cilnidipine 10 mg + Tadalafil 5 mg
[2] = Table C9, Pooled Cilnidipine 20 mg and Cilnidipine 20 mg + Tadalafil 5 mg
[3] = Table C9, pooled cilnidipine 10 mg and 20 mg arms (plus tadalafil 5 mg where labelled)
[4] = Table C10, Pooled Cilnidipine 10 mg and Cilnidipine 10 mg + Tadalafil 5 mg
[5] = Table C10, Pooled Cilnidipine 20 mg and Cilnidipine 20 mg + Tadalafil 5 mg
[6] = Table C10, pooled cilnidipine 10 mg and 20 mg arms (plus tadalafil 5 mg where labelled)

Q: For COCCOC(=O)C1=C(C)NC(C)=C(C(=O)OC/C=C/c2ccccc2)C1c1cccc([N+](=O)[O-])c1 (centres unmarked) [Cilnidipine, cilnidipine], which “SHAQ % Δ from baseline, VAS Finger Ulcers, median” value (Pooled cilnidipine (4)) is on record?
A: −50.9%

Q: And the “SHAQ % Δ from baseline, alternative disability, mean” value (Pooled cilnidipine (4))?
A: −12.9%

Q: What about the “SHAQ % Δ from baseline, alternative disability, median” value (Pooled cilnidipine (4)) of the same compound?
A: −22.2%

Q: What about the “SHAQ % Δ from baseline, standard disability, mean” value (Pooled cilnidipine (4)) of the same compound?
A: −25%

Q: What about the “SHAQ % Δ from baseline, standard disability, median” value (Pooled cilnidipine (4)) of the same compound?
A: −16.7%

Q: And the “SHAQ % Δ from baseline, Intestinal Problems, mean” value (Pooled cilnidipine (5))?
A: −32.4%

Q: And the “SHAQ % Δ from baseline, Intestinal Problems, median” value (Pooled cilnidipine (5))?
A: −44.1%

Q: And the “SHAQ % Δ from baseline, VAS Overall Disease Severity, mean” value (Pooled cilnidipine (6))?
A: −59.8%

Q: What about the “SHAQ % Δ from baseline, VAS Overall Disease Severity, median” value (Pooled cilnidipine (6)) of the same compound?
A: −55.9%

Q: And the “SHAQ % Δ from baseline, VAS Pain, mean” value (Pooled cilnidipine (6))?
A: −31.2%

Q: And the “SHAQ % Δ from baseline, VAS Pain, median” value (Pooled cilnidipine (6))?
A: −45%

Q: And the “SHAQ % Δ from baseline, VAS Raynaud's, mean” value (Pooled cilnidipine (6))?
A: −18.6%

Q: And the “SHAQ % Δ from baseline, VAS Raynaud's, median” value (Pooled cilnidipine (6))?
A: −38.7%

Q: What about the “SHAQ Standard Disability Index: Baseline, Mean” value [1] of the same compound?
A: 0.597

Q: And the “SHAQ Standard Disability Index: Baseline, Median” value [1]?
A: 0.500

Q: And the “SHAQ Standard Disability Index: Change from Baseline (Day 12), Mean” value (from here on “SHAQ Standard Disability Index: Change … Mean”) [1]?
A: −0.021

Q: What about the “SHAQ Standard Disability Index: Change from Baseline (Day 12), Median” value (“SHAQ Standard Disability Index: Change … Median” for short) [1] of the same compound?
A: 0.000

Q: What about the “SHAQ Standard Disability Index: In-Clinic Visit (Day 12), Mean” value [1] of the same compound?
A: 0.576

Q: What about the “SHAQ Standard Disability Index: In-Clinic Visit (Day 12), Median” value [1] of the same compound?
A: 0.375

Q: And the “SHAQ Standard Disability Index: Percent Change from Baseline (Day 12), Mean” value [1]?
A: 7.50%

Q: And the “SHAQ Standard Disability Index: Percent Change from Baseline (Day 12), Median” value [1]?
A: 0.00%

Q: What about the “SHAQ Standard Disability Index: Baseline, Mean” value [2] of the same compound?
A: 0.563

Q: And the “SHAQ Standard Disability Index: Baseline, Median” value [2]?
A: 0.375

Q: And the “SHAQ Standard Disability Index: Change … Mean” value [2]?
A: −0.065

Q: What about the “SHAQ Standard Disability Index: Change … Median” value [2] of the same compound?
A: 0.000

Q: What about the “SHAQ Standard Disability Index: In-Clinic Visit (Day 12), Mean” value [2] of the same compound?
A: 0.498

Q: What about the “SHAQ Standard Disability Index: In-Clinic Visit (Day 12), Median” value [2] of the same compound?
A: 0.250

Q: What about the “SHAQ Standard Disability Index: Percent Change from Baseline (Day 12), Mean” value [2] of the same compound?
A: −1.66%

Q: And the “SHAQ Standard Disability Index: Percent Change from Baseline (Day 12), Median” value [2]?
A: −12.82%

Q: And the “SHAQ Standard Disability Index: Baseline, Mean” value [3]?
A: 0.500

Q: What about the “SHAQ Standard Disability Index: Baseline, Median” value [3] of the same compound?
A: 0.375

Q: And the “SHAQ Standard Disability Index: Change … Mean” value [3]?
A: −0.031

Q: What about the “SHAQ Standard Disability Index: Change … Median” value [3] of the same compound?
A: 0.000

Q: And the “SHAQ Standard Disability Index: In-Clinic Visit (Day 12), Mean” value [3]?
A: 0.469

Q: And the “SHAQ Standard Disability Index: In-Clinic Visit (Day 12), Median” value [3]?
A: 0.188

Q: What about the “SHAQ Standard Disability Index: Percent Change from Baseline (Day 12), Mean” value [3] of the same compound?
A: −16.00%

Q: And the “SHAQ Standard Disability Index: Percent Change from Baseline (Day 12), Median” value [3]?
A: 0.00%

Q: And the “SHAQ Standard Disability Index: Baseline, Mean” value [4]?
A: 0.597

Q: And the “SHAQ Standard Disability Index: Baseline, Median” value [4]?
A: 0.500

Q: What about the “SHAQ Standard Disability Index: Change … Mean” value [4] of the same compound?
A: −0.021

Q: And the “SHAQ Standard Disability Index: Change … Median” value [4]?
A: 0.000

Q: And the “SHAQ Standard Disability Index: In-Clinic Visit (Day 12), Mean” value [4]?
A: 0.576

Q: What about the “SHAQ Standard Disability Index: In-Clinic Visit (Day 12), Median” value [4] of the same compound?
A: 0.375

Q: What about the “SHAQ Standard Disability Index: Percent Change from Baseline (Day 12), Mean” value [4] of the same compound?
A: 7.50%

Q: And the “SHAQ Standard Disability Index: Percent Change from Baseline (Day 12), Median” value [4]?
A: 0.00%

Q: And the “SHAQ Standard Disability Index: Baseline, Mean” value [5]?
A: 0.563

Q: What about the “SHAQ Standard Disability Index: Baseline, Median” value [5] of the same compound?
A: 0.375

Q: And the “SHAQ Standard Disability Index: Change … Mean” value [5]?
A: −0.065

Q: What about the “SHAQ Standard Disability Index: Change … Median” value [5] of the same compound?
A: 0.000

Q: And the “SHAQ Standard Disability Index: In-Clinic Visit (Day 12), Mean” value [5]?
A: 0.498

Q: What about the “SHAQ Standard Disability Index: In-Clinic Visit (Day 12), Median” value [5] of the same compound?
A: 0.250

Q: What about the “SHAQ Standard Disability Index: Percent Change from Baseline (Day 12), Mean” value [5] of the same compound?
A: −1.66%

Q: And the “SHAQ Standard Disability Index: Percent Change from Baseline (Day 12), Median” value [5]?
A: −12.82%

Q: What about the “SHAQ Standard Disability Index: Baseline, Mean” value [6] of the same compound?
A: 0.500

Q: What about the “SHAQ Standard Disability Index: Baseline, Median” value [6] of the same compound?
A: 0.375

Q: And the “SHAQ Standard Disability Index: Change … Mean” value [6]?
A: −0.031

Q: What about the “SHAQ Standard Disability Index: Change … Median” value [6] of the same compound?
A: 0.000

Q: And the “SHAQ Standard Disability Index: In-Clinic Visit (Day 12), Mean” value [6]?
A: 0.469

Q: And the “SHAQ Standard Disability Index: In-Clinic Visit (Day 12), Median” value [6]?
A: 0.188

Q: And the “SHAQ Standard Disability Index: Percent Change from Baseline (Day 12), Mean” value [6]?
A: −16.00%

Q: And the “SHAQ Standard Disability Index: Percent Change from Baseline (Day 12), Median” value [6]?
A: 0.00%

Q: And the “mean decrease in patient reported disease severity on the SHAQ” value (pooled cilnidipine patients, 10 mg or 20 mg (n=7))?
A: 60%
